According to ChEMBL document CHEMBL1201862, “PubChem BioAssay data set” (2004):
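A five-concentration, 48-hour dose response in 96-well plates underlies each endpoint, interpolated linearly between surrounding concentrations. GI50 = concentration required for 50% inhibition of growth.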 Calls of active or inactive are those of the source. Rule as the data show it: active = GI50 up to about 1.1 µM and inactive = higher.

Columns and labels:
Assay in all cases: inhibition of tumour cell growth, NCI panel, 48 h
[1] = tested on: NCI-H23
[2] = tested on: CAKI-1
[3] = tested on: SK-MEL-2
[4] = tested on: BT-549
[5] = tested on: A498
[6] = tested on: EKVX
[7] = tested on: NCI-H226
[8] = tested on: NCI-H522
[9] = tested on: SF-268
[10] = tested on: DU-145
[11] = tested on: IGROV-1
[12] = tested on: KM12
[13] = tested on: HOP-62
[14] = tested on: SF-539
[15] = tested on: HOP-92
[16] = tested on: UO-31
[17] = tested on: NCI-H460
[18] = tested on: ACHN
[19] = tested on: HCT-15
[20] = tested on: 786-0

| SMILES | GI50 [1] | GI50 [2] | GI50 [3] | GI50 [4] | GI50 [5] | GI50 [6] | GI50 [7] | GI50 [8] | GI50 [9] | GI50 [10] | GI50 [11] | GI50 [12] | GI50 [13] | GI50 [14] | GI50 [15] | GI50 [16] | GI50 [17] | GI50 [18] | GI50 [19] [µM] | GI50 [20] |
| --- | --- | --- | --- | --- | --- | --- | --- | --- | --- | --- | --- | --- | --- | --- | --- | --- | --- | --- | --- | --- |
| CCOC(=O)c1ccc(/N=C/C=C(\Nc2ccc(C(=O)OCC)cc2)C23CC4CC(CC(C4)C2)C3)cc1 | 54 µM (inactive) | > 100 µM (inactive) | > 100 µM (inactive) | > 100 µM (inactive) | 38.4 µM (inactive) | 48.4 µM (inactive) | > 100 µM (inactive) | > 100 µM (inactive) | > 100 µM (inactive) | 55.1 µM (inactive) | > 100 µM (inactive) | 43.5 µM (inactive) | > 100 µM (inactive) | 28.2 µM (inactive) | 15.8 µM (inactive) | 3.43 µM (inactive) | 42.2 µM (inactive) | 93.1 µM (inactive) | 92.3 | 56.1 µM (inactive) |
| CC(C)OC1=C(CC2(C)OCCO2)C(=O)C12OCCO2 | 42 µM (inactive) | > 100 µM (inactive) | > 100 µM (inactive) | > 100 µM (inactive) | > 100 µM (inactive) | > 100 µM (inactive) | > 100 µM (inactive) | 40.4 µM (inactive) | > 100 µM (inactive) | > 100 µM (inactive) | > 100 µM (inactive) | > 100 µM (inactive) | > 100 µM (inactive) | > 100 µM (inactive) | > 100 µM (inactive) | > 100 µM (inactive) | > 100 µM (inactive) | > 100 µM (inactive) | > 100 | > 100 µM (inactive) |
| CC(=O)Nc1ccc2c(C)c3c(nc2n1)[nH]c1ccccc13 | 25.2 µM (inactive) | 24 µM (inactive) | 22.6 µM (inactive) | 31.9 µM (inactive) | 60.7 µM (inactive) | 23.1 µM (inactive) | 23.4 µM (inactive) | 20 µM (inactive) | 33 µM (inactive) | 33.6 µM (inactive) | 22.2 µM (inactive) | 21.9 µM (inactive) | 32.2 µM (inactive) | 57.3 µM (inactive) | 20.4 µM (inactive) | 24.5 µM (inactive) | 21.1 µM (inactive) | 17.8 µM (inactive) | 15.5 | 35.4 µM (inactive) |
| Cc1c2ccccc2c(C2C3C(=O)N(c4ccc(Br)cc4)C(=O)C3ON2C(C(N)=O)c2ccccc2)c2ccccc12 (stereo not given) | 5.56 µM (inactive) | 3.67 µM (inactive) | 5.62 µM (inactive) | 7.29 µM (inactive) | 2.98 µM (inactive) | 5.28 µM (inactive) | 5.3 µM (inactive) | 2.79 µM (inactive) | 9.14 µM (inactive) | 6.43 µM (inactive) | 3.4 µM (inactive) | 4.11 µM (inactive) | 8.99 µM (inactive) | 4.13 µM (inactive) | 9.4 µM (inactive) | 10 µM (inactive) | 3.56 µM (inactive) | 4.12 µM (inactive) | 3.88 | 5.5 µM (inactive) |
| O=C1/C(=C/C=C/c2ccccc2)N=C(c2ccccc2)N1c1ccc(S(=O)(=O)Nc2nccs2)cc1 | 21.3 µM (inactive) | 65.9 µM (inactive) | 25.1 µM (inactive) | 19.8 µM (inactive) | 32.1 µM (inactive) | 26.3 µM (inactive) | 20 µM (inactive) | 14.3 µM (inactive) | 14 µM (inactive) | 37.8 µM (inactive) | 20.2 µM (inactive) | 26.5 µM (inactive) | 39.3 µM (inactive) | 20.8 µM (inactive) | 45.9 µM (inactive) | 15.6 µM (inactive) | 25.8 µM (inactive) | 17.8 µM (inactive) | 24.4 | 34.8 µM (inactive) |
